Experimental data as given in patent publication US5733867A, “1, 5-benzodiazepine derivatives” (Glaxo Wellcome SpA, priority 1993, dated 1998).

What was measured:
CCK-A receptor = assay: CCK-receptor binding, CCK-A (Pancreas Assay)
Experimental: (§1) The greater affinity of the compounds of the invention for the CCK-B receptor over the CCK-A receptor has also been established using the CCK receptor binding assays described by G Dal Forno et al., J. Pharmcol. Exp & Ther. 261, 1056-1063, 1992.
(§2) The binding affinity of the compounds of the invention for the CCK-A receptor (Pancreas Assay) and CCK-B receptor (guinea pig cortex assay) was determined using the procedure of G Dal Forno et al J. Pharmacol. Exp & Ther. 261--1056-1063. The pKi values determined with respresentative compounds of invention were as follows: […]

CCK-B receptor = biological target: T1, CCK-B receptor (Cavia porcellus, UniProt H0VZC5); assay: CCK-receptor binding, CCK-B (guinea pig cortex assay); conditions: read-out: pKi CCK-B (converted)
T1 construct: CCK-B receptor (guinea pig cortex assay); from tissue; host or cells: guinea pig cortex
T1 sequence (H0VZC5 1-426): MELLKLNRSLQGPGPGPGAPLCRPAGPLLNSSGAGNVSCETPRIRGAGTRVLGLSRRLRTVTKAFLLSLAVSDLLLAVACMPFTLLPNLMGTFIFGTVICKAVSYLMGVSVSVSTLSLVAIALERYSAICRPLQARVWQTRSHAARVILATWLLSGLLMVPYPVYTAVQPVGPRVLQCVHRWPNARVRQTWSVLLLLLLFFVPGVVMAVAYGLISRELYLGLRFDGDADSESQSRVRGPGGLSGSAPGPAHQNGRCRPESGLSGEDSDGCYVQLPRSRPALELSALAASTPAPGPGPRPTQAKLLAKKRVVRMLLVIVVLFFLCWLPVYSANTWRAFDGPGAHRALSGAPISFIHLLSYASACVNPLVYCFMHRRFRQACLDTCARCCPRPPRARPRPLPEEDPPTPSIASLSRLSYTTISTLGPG
Experimental: as §1, §2

Structure (SMILES)	pKi CCK-A (CCK-A receptor)	Ki (CCK-B receptor)
O=CNc1cccc(NC(=O)NC2C(=O)N(CC34CC5CC(CC(C5)C3)C4)c3ccccc3N(c3ccccc3)C2=O)c1 (racemic) [Example 6, N-[1-(1-Adamantylmethyl)-2,4-dioxo-5-phenyl-2,3,4,5-tetrahydro-1H-1,5-benzodiazepin-3-yl]-N'-(3-formylaminophenyl)urea]	5.95	0.955 nM
CC(=O)Nc1cccc(NC(=O)NC2C(=O)N(CC34CC5CC(CC(C5)C3)C4)c3ccccc3N(c3ccccc3)C2=O)c1 (racemic) [Example 7, N-[1-(1-Adamantylmethyl)-2,4-dioxo-5-phenyl-2,3,4,5-tetrahydro-1H-1,5-benzodiazepin-3-yl]-N'-(3-acetamidophenyl)urea]	5.82	1.32 nM
O=C(Nc1cccc(CN2CCOCC2)c1)NC1C(=O)N(CC23CC4CC(CC(C4)C2)C3)c2ccccc2N(c2ccccc2)C1=O (single isomer, unassigned; (+)) [Example 1, (+)N-[1-(1-Adamantylmethyl)-2,4-dioxo-5-phenyl-2,3,4,5-tetrahydro-1H-1,5-benzodiazepin-3-yl]-N'-(3-(4-morpholinomethyl)phenyl]-urea]	4.70	
CCOC(=O)CCCOc1ccc(NC(=O)NC2C(=O)N(CC34CC5CC(CC(C5)C3)C4)c3ccccc3N(c3ccccc3)C2=O)cc1 (single isomer, unassigned; (+)) [Example 2, (+)N-[1-(1-Adamantylmethyl)-2,4-dioxo-5-phenyl-2,3,4,5-tetrahydro-1H-1,5-benzodiazepin-3yl]-N'-[4-(3-(ethoxycarbonyl)propyl-1-oxo)phenyl]urea]	< 5.0	5.25 nM
O=C(O)CCCOc1ccc(NC(=O)NC2C(=O)N(CC34CC5CC(CC(C5)C3)C4)c3ccccc3N(c3ccccc3)C2=O)cc1 (single isomer, unassigned; (+)) [Example 3, (+)N-[1-(1-Adamantylmethyl)-2,4-dioxo-5-phenyl-2,3,4,5-tetrahydro-1H-1,5benzodiazepin-3-yl]-N'-[4-(4-oxobutanoic acid)phenyl]urea]	< 5.0	3.8 nM
O=C(Nc1cccc(C(=O)OCCN2CCOCC2)c1)NC1C(=O)N(CC23CC4CC(CC(C4)C2)C3)c2ccccc2N(c2ccccc2)C1=O (single isomer, unassigned; (+)) [Example 4, (+)N-[1-(1-Adamantylmethyl)-2,4-dioxo-5-phenyl-2,3,4,5-tetrahydro-1H-5-benzodiazepin-3-yl]-N'-[3-[2-(4-Morpholino)ethoxycarbonyl]phenyl]urea]	6.47	0.562 nM
O=C(Nc1cccc(NCC(O)CO)c1)NC1C(=O)N(CC23CC4CC(CC(C4)C2)C3)c2ccccc2N(c2ccccc2)C1=O (single isomer, unassigned; (+)) [Example 5, (+)N-[1-(1-Adamantylmethyl)-2,4-dioxo-5-phenyl-2,3,4,5-tetrahydro-1H-1,5-benzodiazepin-3-yl]N'-[3-(2,3-dihydroxypropylamino)phenyl]urea]	5.13	0.676 nM
